Our source for the T/C values is PubChem BioAssay AID192 (DTP/NCI, 2004).

Several values for one entry are separate records, joined by “and”; a condition that tells them apart may be missing. Equal entries are not always repeated. Inconclusive results and toxic doses are left out.

For the experiment, the system named is BDF1 mice, B16 melanoma ip, median survival T/C. The experiment can be described thus: NCI In Vivo Anticancer Drug Screen. Data for tumor model B16 Melanoma (intraperitoneal) in B6D2F1 (BDF1) mice. The note with it: endpoint: median survival time, higher = longer survival. A digest of the protocol: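 In this screen, activity was judged from survival or tumor size in treated versus vehicle-treated tumor-bearing mice, reported as T/C.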

The mark [1] stands for this setting: dose: 1.56 mg/kg/injection, schedule: Q01DX009 (ip), vehicle: saline.
The mark [2] stands for this setting: dose: 6.25 mg/kg/injection, schedule: Q01DX009 (ip), vehicle: saline.
[3] abbreviates: dose: 100.0 mg/kg/injection, schedule: Q01DX009 (ip), vehicle: Klucel (hydroxypropylcellulose) (HPC).
[4] abbreviates: dose: 200.0 mg/kg/injection, schedule: Q01DX009 (ip), vehicle: Klucel (hydroxypropylcellulose) (HPC).
Where [5] appears, read: dose: 400.0 mg/kg/injection, schedule: Q01DX009 (ip), vehicle: Klucel (hydroxypropylcellulose) (HPC).
The mark [6] stands for this setting: dose: 50.0 mg/kg/injection, schedule: Q01DX009 (ip), vehicle: saline with Tween-80.
Setting [7] is: dose: 100.0 mg/kg/injection, schedule: Q01DX009 (ip), vehicle: saline with Tween-80.
Where [8] appears, read: dose: 200.0 mg/kg/injection, schedule: Q01DX009 (ip), vehicle: saline with Tween-80.
Setting [9] is: dose: 100.0 mg/kg/injection, schedule: Q04DX003 (ip), vehicle: Klucel (hydroxypropylcellulose) (HPC).
The mark [10] stands for this setting: dose: 200.0 mg/kg/injection, schedule: Q04DX003 (ip), vehicle: Klucel (hydroxypropylcellulose) (HPC).
[11] abbreviates: dose: 400.0 mg/kg/injection, schedule: Q04DX003 (ip), vehicle: Klucel (hydroxypropylcellulose) (HPC).
Setting [12] is: dose: 25.0 mg/kg/injection, schedule: Q01DX009 (ip), vehicle: saline.
Where [13] appears, read: dose: 50.0 mg/kg/injection, schedule: Q01DX009 (ip), vehicle: saline.
The mark [14] stands for this setting: dose: 12.5 mg/kg/injection, schedule: Q01DX009 (ip), vehicle: saline.
The mark [15] stands for this setting: dose: 3.12 mg/kg/injection, schedule: Q01DX009 (ip), vehicle: saline.
Where [16] appears, read: dose: 50.0 mg/kg/injection, schedule: Q04DX003 (ip), vehicle: saline.

For the compound `Cc1ccc2c(ccc(/C=C\c3cc(C)c4cccnc4c3O)[n+]2C)c1`, the T/C is 95 % of control under setting [1]; 95 % of control (dose: 3.13 mg/kg/injection, schedule: Q01DX009 (ip), vehicle: saline); 91 % of control under setting [2].
Turning to `NC(=O)c1cc(N2CC2)c([N+](=O)[O-])cc1[N+](=O)[O-]`, the T/C reads like this: (dose: 5.0 mg/kg/injection, schedule: Q01DX009 (ip), vehicle: saline) 104 % of control; (dose: 10.0 mg/kg/injection, schedule: Q01DX009 (ip), vehicle: saline) 109 % of control; (dose: 20.0 mg/kg/injection, schedule: Q01DX009 (ip), vehicle: saline) 95 % of control.
For the compound `CCCCCCCCC(O)CCCC` (stereo not drawn), the T/C by setting is: under setting [3], 103 % of control; under setting [4], 95 % of control; under setting [5], 103 % of control.
On to `CC(=O)SCC(C)CCl` (stereo not drawn), for which the T/C under setting [6] is 100 % of control and the T/C under setting [7] was 100 % of control.
As to `Nc1ccc(S(=O)(=O)c2ccc(NCNc3ccc(S(=O)(=O)c4ccc(N)cc4)cc3)cc2)cc1`, the T/C under setting [7] is 88 % of control; the T/C under setting [8] is 92 % of control; the T/C (dose: 400.0 mg/kg/injection, schedule: Q01DX009 (ip), vehicle: saline with Tween-80) is 90 % of control.
Take `COc1ccc(/C=C2\CCC3C(=O)CCCC3(C)C2=O)cc1` (stereo not drawn): the T/C is 94 % of control under setting [9], 92 % of control under setting [10] and 89 % of control under setting [11].
In the case of `COc1c(NC(=O)CC(C)=O)cccc1NC(=O)CC(C)=O`, the T/C reads like this: (dose: 50.0 mg/kg/injection, schedule: Q01DX009 (ip), vehicle: Klucel (hydroxypropylcellulose) (HPC)) 120 % of control; under setting [3], 104 % of control; under setting [4], 97 % of control.
`CC(=O)CC(=O)N1CCCC(C)C1` (stereo not drawn): the T/C is, setting by setting: under setting [3], 116 % of control; under setting [4], 109 % of control; under setting [5], 110 % of control.
For the compound `CCC1OCCN1C(C)C` (stereo not drawn), the T/C is 102 % of control under setting [12] and 106 % of control under setting [13].
`COc1cc(/C=C/[N+](=O)[O-])c([N+](=O)[O-])cc1OC`: the T/C under setting [2] was 102 % of control, the T/C under setting [14] was 90 % of control and the T/C under setting [12] was 92 % of control.
For the compound `CC(=O)[C@H]1CC[C@H]2[C@@H]3CCC4=CC(=O)CC[C@]4(C)[C@H]3CC[C@]12C`, the T/C was 104 % of control (dose: 12.5 mg/kg/injection, schedule: Q02DX009 (ip), vehicle: Klucel (hydroxypropylcellulose) (HPC)); 96 % of control (dose: 25.0 mg/kg/injection, schedule: Q02DX009 (ip), vehicle: Klucel (hydroxypropylcellulose) (HPC)); 100 % of control (dose: 50.0 mg/kg/injection, schedule: Q02DX009 (ip), vehicle: Klucel (hydroxypropylcellulose) (HPC)); 91 % of control (dose: 100.0 mg/kg/injection, schedule: Q02DX009 (ip), vehicle: Klucel (hydroxypropylcellulose) (HPC)); 120 % of control (dose: 200.0 mg/kg/injection, schedule: Q02DX009 (ip), vehicle: Klucel (hydroxypropylcellulose) (HPC)); 104 % of control (dose: 400.0 mg/kg/injection, schedule: Q02DX009 (ip), vehicle: Klucel (hydroxypropylcellulose) (HPC)).
As for `CNNC(=O)NC`, the T/C under setting [1] is 87 % of control, the T/C under setting [15] was 95 % of control and the T/C under setting [14] is 100 % of control.
Turning to `ClC1=C(Cl)C2(Cl)C(COc3ccc(Cl)cc3)CC1(Cl)C2(Cl)Cl` (stereo not drawn), the T/C is, setting by setting: (dose: 12.5 mg/kg/injection, schedule: Q01DX009 (ip), vehicle: saline with Tween-80) 104 % of control; (dose: 25.0 mg/kg/injection, schedule: Q01DX009 (ip), vehicle: saline with Tween-80) 88 % of control; under setting [6], 95 % of control.
In the case of `O=C(O)CCC(=O)CCC(=O)c1ccccc1`, the T/C reads like this: under setting [6], 95 % of control; under setting [7], 100 % of control; under setting [8], 93 % of control.
Consider `C/C=C(/C#N)c1ccccc1`, for which the T/C was 100 % of control (dose: 50.0 mg/kg/injection, schedule: Q04DX003 (ip), vehicle: saline with Tween-80) and 97 % of control (dose: 100.0 mg/kg/injection, schedule: Q04DX003 (ip), vehicle: saline with Tween-80).
Take `Cc1cc2nc3ccc(=[N+](C)C)cc-3sc2cc1N`: the T/C is, setting by setting: under setting [15], 116 % of control; under setting [14], 116 % of control; under setting [12], 107 % of control; under setting [13], 97 % of control.
In the case of `C1=CCOCOC1`, the T/C by setting is: (dose: 12.5 mg/kg/injection, schedule: Q04DX003 (ip), vehicle: saline) 96 % of control; (dose: 25.0 mg/kg/injection, schedule: Q04DX003 (ip), vehicle: saline) 107 % of control; under setting [16], 93 % of control.
With `c1ccc(C[n+]2ccc3ccccc3c2)cc1`, the T/C under setting [2] is 105 % of control and 113 % of control; the T/C (dose: 6.25 mg/kg/injection, schedule: Q04DX003 (ip), vehicle: saline with Tween-80) was 95 % of control; the T/C under setting [14] is 117 % of control; the T/C (dose: 12.5 mg/kg/injection, schedule: Q04DX003 (ip), vehicle: saline with Tween-80) is 107 % of control; the T/C under setting [12] was 108 % of control and 110 % of control; the T/C (dose: 25.0 mg/kg/injection, schedule: Q04DX003 (ip), vehicle: saline with Tween-80) was 100 % of control.
As to `O=C(Nc1ccc(Cl)cc1)Nc1ccccc1Cl`, the T/C by setting is: (dose: 4.5 mg/kg/injection, schedule: Q01DX009 (ip), vehicle: gum acacia) 102 % of control; (dose: 9.0 mg/kg/injection, schedule: Q01DX009 (ip), vehicle: gum acacia) 97 % of control; (dose: 18.0 mg/kg/injection, schedule: Q01DX009 (ip), vehicle: gum acacia) 90 % of control; (dose: 100.0 mg/kg/injection, schedule: Q01DX009 (ip), vehicle: gum acacia) 89 % of control.
For `NNC(=O)c1ccccn1`, the T/C (dose: 25.0 mg/kg/injection, schedule: Q01DX009 (ip), vehicle: water) was 106 % of control and the T/C (dose: 50.0 mg/kg/injection, schedule: Q01DX009 (ip), vehicle: water) is 113 % of control.
On to `Cc1cc(C)c(NC(=O)NC(C)C)c(C)c1`, for which the T/C by setting is: under setting [9], 100 % of control; under setting [10], 90 % of control; under setting [11], 87 % of control.
Turning to `C=CCOP(=O)(N1CC1C)N1CC1C` (stereo not drawn), the T/C reads like this: under setting [12], 95 % of control; under setting [13], 96 % of control; under setting [16], 97 % of control; (dose: 100.0 mg/kg/injection, schedule: Q04DX003 (ip), vehicle: saline) 105 % of control.
`Cc1ccc([NH-])c([NH-])c1.[Cl][Pt+2][Cl]`: the T/C is 120 % of control (dose: 1.25 mg/kg/injection, schedule: Q01DX009 (ip), vehicle: saline with Tween-80) and 161 % of control (dose: 5.0 mg/kg/injection, schedule: Q01DX009 (ip), vehicle: saline with Tween-80).
